Experimental data: patent publication US20200002354A1, “HEXAHYDROPYRAZINOBENZ- OR -PYRIDO-OXAZEPINES CARRYING AN OXYGEN-CONTAINING SUBSTITUENT AND USE THEREOF IN THE TREATMENT OF 5-HT2C-DEPENDENT DISORDERS” (AbbVie Deutschland GmbH & Co. KG, priority 2015, published 2020)
Like-named read-outs stand apart in the source and are kept apart here.

Tests used:
5-HT2C receptor = biological target: T1, 5-HT2C receptor (Homo sapiens, UniProt P28335); experiment: Human 5-HT2C functional assay (beta-arrestin2 recruitment, U2OS_HTR2C_β-Arrestin cells); assay type: cell-based; conditions: for Emax: relative efficacy vs maximal effect induced by 5-HT (defined as 100%)
T1 construct: host or cells: U2OS
T1 sequence (P28335 33-458): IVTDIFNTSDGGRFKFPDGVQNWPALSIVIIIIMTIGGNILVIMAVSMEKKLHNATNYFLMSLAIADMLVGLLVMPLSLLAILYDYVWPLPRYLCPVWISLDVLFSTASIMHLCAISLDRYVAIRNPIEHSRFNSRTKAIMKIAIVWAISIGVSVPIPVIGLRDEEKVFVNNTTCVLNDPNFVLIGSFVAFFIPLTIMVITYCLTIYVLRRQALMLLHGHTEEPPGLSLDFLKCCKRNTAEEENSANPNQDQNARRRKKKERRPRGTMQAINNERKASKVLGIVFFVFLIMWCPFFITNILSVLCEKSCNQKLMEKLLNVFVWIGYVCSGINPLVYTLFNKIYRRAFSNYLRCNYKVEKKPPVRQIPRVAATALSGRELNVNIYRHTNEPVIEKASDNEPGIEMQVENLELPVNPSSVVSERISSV
T1 sequence (P32121 whole entry partner): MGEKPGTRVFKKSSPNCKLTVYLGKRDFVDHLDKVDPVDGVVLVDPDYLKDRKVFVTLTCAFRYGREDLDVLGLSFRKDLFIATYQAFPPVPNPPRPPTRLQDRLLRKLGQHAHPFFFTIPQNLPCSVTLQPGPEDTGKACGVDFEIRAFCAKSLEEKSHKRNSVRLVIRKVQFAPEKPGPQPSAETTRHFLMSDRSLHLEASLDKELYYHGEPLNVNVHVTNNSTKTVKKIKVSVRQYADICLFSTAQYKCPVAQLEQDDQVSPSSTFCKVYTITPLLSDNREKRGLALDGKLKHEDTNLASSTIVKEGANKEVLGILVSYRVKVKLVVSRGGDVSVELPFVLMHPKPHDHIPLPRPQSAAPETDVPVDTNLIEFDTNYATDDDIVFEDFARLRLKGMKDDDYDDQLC
Protocol: 1. Human 5-HT2C Functional Assay
The functional activity of compounds of formula I was assayed by incubation with U2OS_HTR2C_β-Arrestin cells (DiscoverX, 93-0289C3) to induce beta-arrestin2 recruitment to the 5-HT2C receptor. The agonist-induced recruitment and proximity of the receptor and beta-arrestin2 leads to complementation and formation of active β-galactosidase. The enzyme complementation results in enzyme activity, which is measured following the termination of the agonist incubation using DiscoveRx's detection reagent, which contains a chemiluminescent substrate which produces a high intensity signal. Cells were plated and a medium-change to a 1% serum containing medium was performed 24 h later. The next day, test compounds were added and incubated for 1.5 h before addition of detection reagent.
The response produced was measured and compared with the response produced by 10 [mu]M 5-HT or the maximal effect induced by 5-HT (defined as 100%) to which it was expressed as a percentage response (relative efficacy).

human 5-HT2A receptor = biological target: T2, human 5-HT2A receptor (Homo sapiens, UniProt P28223); experiment: Human 5-HT2A functional assay (calcium mobilisation in CHO-K1 cells, FLIPR); assay type: cell-based; conditions: based on agonism: EC50 5-HT2A/EC50 5-HT2C
T2 construct: expressed in transfected cells; host or cells: CHO-K1
T2 sequence (P28223 whole entry): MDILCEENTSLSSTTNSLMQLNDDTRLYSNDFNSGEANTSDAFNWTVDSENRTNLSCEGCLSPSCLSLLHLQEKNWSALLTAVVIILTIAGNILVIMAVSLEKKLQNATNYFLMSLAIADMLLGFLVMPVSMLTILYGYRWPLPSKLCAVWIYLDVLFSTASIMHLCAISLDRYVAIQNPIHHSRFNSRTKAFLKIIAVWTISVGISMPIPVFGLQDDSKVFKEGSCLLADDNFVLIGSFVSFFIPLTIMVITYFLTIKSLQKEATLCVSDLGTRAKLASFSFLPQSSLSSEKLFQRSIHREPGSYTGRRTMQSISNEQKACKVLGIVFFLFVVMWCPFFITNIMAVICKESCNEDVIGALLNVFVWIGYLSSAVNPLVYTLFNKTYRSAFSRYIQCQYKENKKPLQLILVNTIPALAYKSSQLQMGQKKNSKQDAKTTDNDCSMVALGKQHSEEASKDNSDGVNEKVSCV
Protocol: 2. Human 5-HT2A Functional Assay
Functional activity on the 5-HT2A receptor was determined by testing the effect of the compounds I on calcium mobilisation in CHO-K1 cells, stably transfected with human 5-HT2A receptor. Cells were seeded into sterile black 384-well plates with clear bottom at 25,000 cells/well in a volume of 25 μl and grown for 5-6 hours at 37° C., in 5% CO2 in tissue culture medium (“Ultra CHO” by LONZA), containing 1% dialysed FCS and 50 μg/ml gentamicin (Invitrogen). After this incubation, medium was replaced by a serum free version of the same tissue culture medium followed by incubation overnight at 37° C. and in 5% CO2. Cells were then loaded with a fluorescent calcium-sensitive dye in the presence of 0.07% probenecid for an hour at 37° C., according to the manufacturer's protocol (Ca5-Assay Kit, Molecular Devices), followed by an additional 60 min incubation at room temperature. Serial compound dilutions (final concentrations of 10^−10 to 10^−5M, prepared in HBSS+50 mM HEPES) were first added to the cells alone (“first addition” to assess agonism on the 5-HT2A receptor), then after 8 min, serotonin was added to the same wells at a final concentration of 3×10^−8 M (“second addition” to see potential antagonistic effect) and the maximal calcium response was determined using a FLIPR® Tetra instrument (Molecular Devices) in each of the two steps. The relative efficacy of the compounds was calculated as a percentage of the maximal effect induced by serotonin alone (defined as 100%). To determine EC50/IC50 values, concentration-response curves were fitted using a four-parameter logistic equation (IDBS Biobookml). Kb values were calculated from IC50 values, according to Cheng & Prusoff

human 5-HT2B receptor = biological target: T3, human 5-HT2B receptor (Homo sapiens, UniProt P41595); experiment: Human 5-HT2B functional assay (calcium mobilisation in CHO-FlpIn cells, FLIPR); assay type: cell-based; conditions: based on agonism: EC50 5-HT2B/EC50 5-HT2C
T3 construct: expressed in transfected cells; host or cells: CHO-FlpIn
T3 sequence (P41595 whole entry): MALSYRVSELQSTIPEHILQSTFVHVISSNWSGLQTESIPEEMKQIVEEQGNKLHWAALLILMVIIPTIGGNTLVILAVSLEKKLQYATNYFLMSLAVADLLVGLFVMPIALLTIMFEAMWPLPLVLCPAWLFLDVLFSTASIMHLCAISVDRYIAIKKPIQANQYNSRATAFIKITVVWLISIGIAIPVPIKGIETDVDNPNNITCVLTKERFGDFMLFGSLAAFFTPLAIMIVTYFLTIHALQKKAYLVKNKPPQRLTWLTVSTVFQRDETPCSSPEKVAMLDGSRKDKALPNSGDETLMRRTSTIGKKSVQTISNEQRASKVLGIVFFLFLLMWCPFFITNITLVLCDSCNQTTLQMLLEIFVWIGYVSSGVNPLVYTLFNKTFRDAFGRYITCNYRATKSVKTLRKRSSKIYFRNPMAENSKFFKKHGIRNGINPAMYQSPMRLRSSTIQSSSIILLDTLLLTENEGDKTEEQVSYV
Protocol: 3. Human 5-HT2B Functional Assay
Functional activity on the 5-HT2B receptor was determined by testing the effect of the compounds I on calcium mobilisation in CHO-FlpIn cells, stably transfected with human 5-HT2B receptor. Cells were seeded into sterile black 384-well plates with clear bottom at 30,000 cells/well in a volume of 25 μl and grown overnight at 37° C., in 5% CO2 in tissue culture medium (“CHO-S-SFM II” by Invitrogen), containing 1% dialysed FCS and 50 μg/ml gentamicin (Invitrogen). On the next morning, medium was replaced by a serum free version of the same tissue culture medium for a further incubation for 4 hours at 37° C. and in 5% CO2. Cells were then loaded with a fluorescent calcium-sensitive dye in the presence of 0.07% probenecid for an hour at 37° C., according to the manufacturer's protocol (Ca5-Assay Kit, Molecular Devices), followed by an additional 60 min incubation at room temperature. Serial compound dilutions (final concentrations of 10^−10 to 10^−5M, prepared in HBSS+50 mM HEPES) were first added to the cells alone (“first addition” to assess agonism on the 5-HT2B receptor), then after 8 min, serotonin was added to the same wells at a final concentration of 10^−8 M (“second addition” to see potential antagonistic effect) and the maximal calcium response was determined using a FLIPR® Tetra instrument (Molecular Devices) in each of the two steps. The relative efficacy of the compounds was calculated as a percentage of the maximal effect induced by serotonin alone (defined as 100%). To determine EC50/IC50 values, concentration-response curves were fitted using a four-parameter logistic equation (IDBS Biobookml). Kb values were calculated from IC50 values, according to Cheng & Prusoff

[1] = Metabolic stability in human liver microsomes, unbound intrinsic clearance; assay type: in vitro ADME; conditions: pH 7.4
Protocol: Samples of the tested compounds (0.5 μM) were preincubated together with human liver microsomes (0.25 mg of microsomal protein/mL) in 0.05 M potassium phosphate buffer of pH 7.4 in microtiter plates at 37° C. for 5 minutes. The reaction was started by adding NADPH (1.0 mM). After 0, 5, 10, 15, 20 and 30 minutes, an aliquot was removed, the reaction was cooled and stopped by adding twice the amount of quench solution consisting of acetonitrile/methanol 1:1, and containing 0.2 μM carbutamide as internal standard. The samples were frozen until analyzed. The remaining concentration of undegraded test substance was determined by liquid chromatography-tandem mass spectrometry (LC-MS/MS). The half-life (t1/2) was determined from the gradient of the ratio of the signal of (test substance/internal standard)/unit time plot, allowing the calculation of the half-life of the test substance, assuming first order kinetics, from the decrease in the concentration of the compound with time. The microsomal clearance (mClint) was calculated as follows: mClint=((ln(2)/t ½)/Microsomal Protein Concentration (mg/ml))*1000, leading to the unit of uL/min/mg. The scaled clearance (mClin_scaled) was calculated as mCLint_scaled=m CLint*(Microsomal Yield (mg/kg BW))/1000000*60, leading to the units L/h/kg. The Microsomal Yield is defined by the specifics of the used microsomes. Calculations were modified from references: Di, The Society for Biomolecular Screening, 2003, 453-462; Obach, D M D, 1999 vol 27. N 11, 1350-1359.
Calculation of Unbound Intrinsic Clearance
C1int unbound=C1 int/fu mic

[2] = Potency (EC50 5-HT2C) in functional assay, agonism, read-out: EC50 5-HT2C
[3] = liver microsomes, unbound intrinsic clearance (human), Clint unbound = Cl int/fu mic, read-out: Cl int, mic unb. (h)

| Compound | EC50 (5-HT2C receptor; [2]) [nM] | Emax (5-HT2C receptor) [%] | Selectivity over 5-HT2A (human 5-HT2A receptor) | Selectivity over 5-HT2B (human 5-HT2B receptor) | CLint scaled at 0.5 μM [1, 3] [mL/min/kg] | EC50 (5-HT2C receptor) [nM] | CLint scaled at 0.5 μM ([1]; human, microsomes) [mL/min/kg] |
| --- | --- | --- | --- | --- | --- | --- | --- |
| COC[C@@H]1C[C@@H]2CNCCN2c2cccc(Cl)c2O1.Cl [Example 1, (4aR,6S)-8-Chloro-6-(methoxymethyl)-2,3,4,4a,5,6-hexahydro-1H-pyrazino[2,1-d][1,5]benzoxazepine hydrochloride] | < 20 | > 70 | +++ (>100) | +++ (>100) | < 83.3 | – | – |
| COC[C@H]1C[C@@H]2CNCCN2c2cccc(Cl)c2O1.O=C(O)C(F)(F)F [Example 2, (4aR,6R)-8-Chloro-6-(methoxymethyl)-2,3,4,4a,5,6-hexahydro-1H-pyrazino[2,1-d][1,5]benzoxazepine; 2,2,2-trifluoroacetic acid] | 20 to 200 | 50 to 70 | +++ (>100) | +++ (>100) | < 83.3 | – | – |
| COC[C@@H]1C[C@@H]2CNCCN2c2ccccc2O1.O=C(O)C(F)(F)F [Example 3, (4aR,6S)-6-(Methoxymethyl)-2,3,4,4a,5,6-hexahydro-1H-pyrazino[2,1-d][1,5]benzoxazepine; 2,2,2-trifluoroacetic acid] | – | 50 to 70 | + (from 10 to 30) | + (from 10 to 30) | – | 200 to 1000 | < 83.3 |
| COC[C@@H]1C[C@@H]2CNCCN2c2ccc(F)c(Cl)c2O1.Cl [Example 5, (4aR,6S)-8-Chloro-9-fluoro-6-(methoxymethyl)-2,3,4,4a,5,6-hexahydro-1H-pyrazino[2,1-d][1,5]benzoxazepine hydrochloride] | < 20 | > 70 | +++ (>100) | + (from 10 to 30) | < 83.3 | – | – |
| COC[C@@H]1C[C@@H]2CNCCN2c2cccc(C(F)F)c2O1.Cl [Example 6, (4aR,6S)-8-(Difluoromethyl)-6-(methoxymethyl)-2,3,4,4a,5,6-hexahydro-1H-pyrazino[2,1-d][1,5]benzoxazepine hydrochloride] | < 20 | > 70 | +++ (>100) | ++ (from >30 to 100) | < 83.3 | – | – |
| COC[C@@H]1C[C@@H]2CNCCN2c2cc(F)cc(Cl)c2O1.Cl [Example 7, (4aR,6S)-8-Chloro-10-fluoro-6-(methoxymethyl)-2,3,4,4a,5,6-hexahydro-1H-pyrazino[2,1-d][1,5]benzoxazepine hydrochloride] | < 20 | > 70 | +++ (>100) | +++ (>100) | < 83.3 | – | – |
| COC[C@@H]1C[C@@H]2CNCCN2c2cc(F)ccc2O1.Cl [Example 8, (4aR,6S)-10-Fluoro-6-(methoxymethyl)-2,3,4,4a,5,6-hexahydro-1H-pyrazino[2,1-d][1,5]benzoxazepine hydrochloride] | 20 to 200 | > 70 | +++ (>100) | +++ (>100) | < 83.3 | – | – |
| COC[C@@H]1C[C@@H]2CNCCN2c2cc(F)cc(C(F)F)c2O1.Cl [Example 9, (4aR,6S)-8-(Difluoromethyl)-10-fluoro-6-(methoxymethyl)-2,3,4,4a,5,6-hexahydro-1H-pyrazino[2,1-d][1,5]benzoxazepine hydrochloride] | < 20 | > 70 | +++ (>100) | +++ (>100) | < 83.3 | – | – |
| COC[C@@H]1C[C@@H]2CNCCN2c2cc(Cl)ccc2O1.Cl [Example 10, (4aR,6S)-10-Chloro-6-(methoxymethyl)-2,3,4,4a,5,6-hexahydro-1H-pyrazino[2,1-d][1,5]benzoxazepine hydrochloride] | 20 to 200 | – | ++ (from >30 to 100) | ++ (from >30 to 100) | 83.3 to 833 | – | – |
| COC[C@@H]1C[C@@H]2CNCCN2c2cc(F)cc(F)c2O1.Cl [Example 11, (4aR,6S)-8,10-Difluoro-6-(methoxymethyl)-2,3,4,4a,5,6-hexahydro-1H-pyrazino[2,1-d][1,5]benzoxazepine hydrochloride] | 20 to 200 | > 70 | +++ (>100) | ++ (from >30 to 100) | < 83.3 | – | – |
| COC[C@@H]1C[C@@H]2CNCCN2c2c(F)c(F)c(F)c(Cl)c2O1.Cl [Example 55, (4aR,6S)-8-Chloro-9,10,11-trifluoro-6-(methoxymethyl)-2,3,4,4a,5,6-hexahydro-1H-pyrazino[2,1-d][1,5]benzoxazepine hydrochloride] | < 20 | > 70 | +++ (>100) | +++ (>100) | – | – | – |
